Experimental data from patent publication US9845487B2, “Selective chromogenic medium” (SZEGEDI TUDOMÁNYEGYETEM, priority 2013, dated 2017).

Legend:
Saccharomyces = experiment: growth of winemaking yeasts on selective medium with cycloheximide; format: cell-based; settings: in the concentration used by the inventors
From the text: (§1) The procedure requires no sterile laboratory conditions and only little attention is to be paid to ensure that the right sample is placed on the surface of the culture medium. The culture medium contains components easily available. In addition to components used for growth, the medium contains antibiotics inhibiting the growth of yeasts, e.g.—other culture media similar to selective Brettanomyces—cycloheximide as well. This antibiotic is used for the identification of different species in yeast diagnostics.
(§2) In the following examples, unless indicated otherwise, the following concentrations and compositions were applied. Composition of medium that was suitable for growing yeast cells was the following: 1% glucose, 0.67% “yeast nitrogen base”, 2% agar, which was made selectively by using 5 μg/ml cycloheximide as an antibiotics for blocking the growth of Saccharomyces strains. Azure-II-eosinate was used in a 30 μg/ml concentration.

[1] = test system: species causing the degradation of wine; experiment: growth of wine-degrading yeasts on selective medium with cycloheximide; format: cell-based; settings: in the concentration used by the inventors
From the text: as §1, §2

SMILES: C[C@@H]1C[C@@H]([C@H](O)CC2CC(=O)NC(=O)C2)C(=O)[C@@H](C)C1 [cycloheximide]
- growth inhibition of winemaking yeasts (Saccharomyces): prevents the growth of most yeasts playing a role in wine-making
- tolerance by wine-degrading yeast species [1]: still tolerated
